Assay [1] deals with T1, Serine/threonine-protein kinase DCLK3 (Homo sapiens) (UniProt Q9C098).
T1 sequence (whole entry): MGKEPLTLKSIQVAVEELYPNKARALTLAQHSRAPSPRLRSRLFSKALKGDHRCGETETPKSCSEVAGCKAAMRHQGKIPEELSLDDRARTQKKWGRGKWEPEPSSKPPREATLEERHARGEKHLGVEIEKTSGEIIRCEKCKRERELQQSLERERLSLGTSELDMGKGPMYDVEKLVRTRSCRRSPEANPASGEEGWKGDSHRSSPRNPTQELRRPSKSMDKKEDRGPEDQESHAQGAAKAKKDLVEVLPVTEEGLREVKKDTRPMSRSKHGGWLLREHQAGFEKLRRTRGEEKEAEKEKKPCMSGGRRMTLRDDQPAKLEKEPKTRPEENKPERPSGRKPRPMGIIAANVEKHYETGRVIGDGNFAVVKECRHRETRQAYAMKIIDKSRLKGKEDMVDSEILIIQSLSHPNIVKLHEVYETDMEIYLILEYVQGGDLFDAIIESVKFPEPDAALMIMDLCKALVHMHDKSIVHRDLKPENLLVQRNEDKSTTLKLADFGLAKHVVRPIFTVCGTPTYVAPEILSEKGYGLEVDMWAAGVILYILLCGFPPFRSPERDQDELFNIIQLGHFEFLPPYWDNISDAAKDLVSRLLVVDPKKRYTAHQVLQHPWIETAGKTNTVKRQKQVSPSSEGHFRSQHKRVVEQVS
As to the kind of experiment: Inhibition of human recombinant DCAMKL3 at 15 nM in presence of ATP by radiometric assay relative to control.

The target of assay [2] is T2, Phosphorylase b kinase gamma catalytic chain, liver/testis isoform (Homo sapiens) (UniProt P15735).
T2 sequence (whole entry): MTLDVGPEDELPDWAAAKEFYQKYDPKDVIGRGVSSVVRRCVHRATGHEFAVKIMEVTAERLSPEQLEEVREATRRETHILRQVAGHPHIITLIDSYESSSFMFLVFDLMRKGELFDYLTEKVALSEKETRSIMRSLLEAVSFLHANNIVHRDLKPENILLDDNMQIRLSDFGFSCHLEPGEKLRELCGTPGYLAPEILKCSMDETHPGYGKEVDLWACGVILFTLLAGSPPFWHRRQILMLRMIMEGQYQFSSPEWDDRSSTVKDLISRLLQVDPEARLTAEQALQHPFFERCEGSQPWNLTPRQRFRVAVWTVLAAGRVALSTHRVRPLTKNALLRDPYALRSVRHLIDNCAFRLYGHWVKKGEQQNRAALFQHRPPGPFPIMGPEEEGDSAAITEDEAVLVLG
As to the kind of experiment: Inhibition of human recombinant PHKg2 at 15 nM related to control ULK1.

The target of assay [3] is T3, Inhibitor of nuclear factor kappa-B kinase subunit epsilon (Homo sapiens) (UniProt Q14164).
T3 sequence (whole entry): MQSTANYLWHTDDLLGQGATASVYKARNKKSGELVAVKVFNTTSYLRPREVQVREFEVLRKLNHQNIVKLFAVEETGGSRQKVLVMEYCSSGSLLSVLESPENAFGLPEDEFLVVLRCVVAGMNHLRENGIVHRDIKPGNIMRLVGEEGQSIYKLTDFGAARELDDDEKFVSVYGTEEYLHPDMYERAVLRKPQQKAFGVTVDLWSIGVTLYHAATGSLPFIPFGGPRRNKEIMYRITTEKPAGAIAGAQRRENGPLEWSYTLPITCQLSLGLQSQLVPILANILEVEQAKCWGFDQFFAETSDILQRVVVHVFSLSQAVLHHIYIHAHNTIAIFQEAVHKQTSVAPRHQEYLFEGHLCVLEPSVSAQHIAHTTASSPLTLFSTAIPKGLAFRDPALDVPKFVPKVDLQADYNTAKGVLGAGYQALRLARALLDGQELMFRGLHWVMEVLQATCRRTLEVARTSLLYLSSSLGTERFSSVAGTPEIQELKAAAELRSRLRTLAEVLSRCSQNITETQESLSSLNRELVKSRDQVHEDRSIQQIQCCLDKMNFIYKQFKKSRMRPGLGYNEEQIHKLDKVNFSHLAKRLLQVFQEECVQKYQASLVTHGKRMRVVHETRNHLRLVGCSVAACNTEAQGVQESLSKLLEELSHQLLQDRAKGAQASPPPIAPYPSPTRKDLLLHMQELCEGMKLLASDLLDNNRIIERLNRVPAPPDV
As to the kind of experiment: Inhibition of human recombinant IKKe at 40 nM related to control ULK1.

Assay [4] has as its target Fibroblast growth factor receptor 1 (Homo sapiens) (UniProt P11362). As to the kind of experiment: Inhibition of human recombinant FGFR1 at 40 nM related to control ULK1.
Assay [5] has as its target T4, Muscle, skeletal receptor tyrosine-protein kinase (Homo sapiens) (UniProt O15146).
T4 sequence (whole entry): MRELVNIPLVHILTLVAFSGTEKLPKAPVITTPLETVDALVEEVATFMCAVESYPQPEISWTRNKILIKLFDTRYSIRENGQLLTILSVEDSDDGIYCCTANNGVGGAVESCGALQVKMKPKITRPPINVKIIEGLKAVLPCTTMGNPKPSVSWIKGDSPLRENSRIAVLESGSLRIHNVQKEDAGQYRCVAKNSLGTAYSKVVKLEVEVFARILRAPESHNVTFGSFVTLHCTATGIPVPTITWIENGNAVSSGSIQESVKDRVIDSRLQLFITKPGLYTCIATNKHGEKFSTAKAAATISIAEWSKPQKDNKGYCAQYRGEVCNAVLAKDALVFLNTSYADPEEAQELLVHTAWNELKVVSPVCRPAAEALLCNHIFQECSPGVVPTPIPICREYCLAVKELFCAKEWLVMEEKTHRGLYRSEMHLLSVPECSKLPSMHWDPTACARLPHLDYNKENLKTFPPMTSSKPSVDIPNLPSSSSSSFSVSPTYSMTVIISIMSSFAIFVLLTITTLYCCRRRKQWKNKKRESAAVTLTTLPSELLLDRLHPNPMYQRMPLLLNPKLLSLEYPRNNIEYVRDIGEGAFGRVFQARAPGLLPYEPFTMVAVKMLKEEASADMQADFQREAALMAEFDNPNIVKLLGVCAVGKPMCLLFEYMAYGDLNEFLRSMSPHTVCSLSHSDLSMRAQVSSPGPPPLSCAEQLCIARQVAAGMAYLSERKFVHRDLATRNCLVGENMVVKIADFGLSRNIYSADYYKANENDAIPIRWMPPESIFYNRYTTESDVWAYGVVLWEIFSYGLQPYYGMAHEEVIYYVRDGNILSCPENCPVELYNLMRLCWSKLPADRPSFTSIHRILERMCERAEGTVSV
The assay can be described thus: Inhibition of human recombinant MUSK at 40 nM in presence of ATP by radiometric assay relative to control.

Assay [6] has as its target Protein kinase C gamma type (Homo sapiens) (UniProt P05129). As to the kind of experiment: Inhibition of human recombinant PKCg at 500 nM related to control ULK1.
For assay [7], the target named is Serine/threonine-protein kinase 32C (Homo sapiens) (UniProt Q86UX6). The assay can be described thus: Inhibition of human recombinant YANK3 at 500 nM in presence of ATP by radiometric assay relative to control.
Serine/threonine-protein kinase 32C (Homo sapiens), sequence (Q86UX6 whole entry): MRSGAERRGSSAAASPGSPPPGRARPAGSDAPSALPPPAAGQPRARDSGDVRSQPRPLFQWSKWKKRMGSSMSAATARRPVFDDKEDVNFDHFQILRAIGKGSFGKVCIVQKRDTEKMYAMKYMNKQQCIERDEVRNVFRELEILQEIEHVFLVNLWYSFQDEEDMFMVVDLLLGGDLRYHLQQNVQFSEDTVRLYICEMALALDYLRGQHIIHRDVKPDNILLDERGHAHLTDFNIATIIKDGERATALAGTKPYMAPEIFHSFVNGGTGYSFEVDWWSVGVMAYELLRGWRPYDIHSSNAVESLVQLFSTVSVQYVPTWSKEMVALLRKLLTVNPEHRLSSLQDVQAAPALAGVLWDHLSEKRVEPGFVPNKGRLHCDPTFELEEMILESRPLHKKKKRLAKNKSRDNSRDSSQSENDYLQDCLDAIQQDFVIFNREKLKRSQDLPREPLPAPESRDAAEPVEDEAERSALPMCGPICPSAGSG

Fibroblast growth factor receptor 1 (Homo sapiens), sequence (P11362 22-822 limits assumed): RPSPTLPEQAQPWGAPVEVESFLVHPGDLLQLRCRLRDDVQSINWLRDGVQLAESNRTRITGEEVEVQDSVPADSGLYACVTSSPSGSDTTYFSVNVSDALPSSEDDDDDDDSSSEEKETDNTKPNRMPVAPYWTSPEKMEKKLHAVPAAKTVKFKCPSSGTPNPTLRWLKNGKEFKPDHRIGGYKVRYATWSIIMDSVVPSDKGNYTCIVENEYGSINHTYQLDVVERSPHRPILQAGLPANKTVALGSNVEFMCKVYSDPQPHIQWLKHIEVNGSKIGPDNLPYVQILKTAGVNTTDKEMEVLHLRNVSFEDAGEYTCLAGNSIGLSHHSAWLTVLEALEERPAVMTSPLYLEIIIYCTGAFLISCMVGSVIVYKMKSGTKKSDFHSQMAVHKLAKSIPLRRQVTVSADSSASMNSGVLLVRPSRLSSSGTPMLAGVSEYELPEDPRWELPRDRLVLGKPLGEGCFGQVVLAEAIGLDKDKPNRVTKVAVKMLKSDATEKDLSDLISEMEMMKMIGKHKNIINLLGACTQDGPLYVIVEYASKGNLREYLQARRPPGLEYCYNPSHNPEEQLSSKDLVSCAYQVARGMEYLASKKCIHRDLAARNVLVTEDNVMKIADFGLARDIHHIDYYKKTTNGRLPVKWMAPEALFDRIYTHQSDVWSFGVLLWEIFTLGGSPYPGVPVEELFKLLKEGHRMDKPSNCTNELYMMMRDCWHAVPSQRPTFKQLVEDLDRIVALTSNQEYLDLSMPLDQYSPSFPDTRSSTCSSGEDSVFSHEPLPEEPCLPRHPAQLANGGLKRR

The inhibition is how much of the control response was suppressed. In the case of `CC(C)[C@H](NC(=O)c1cc(-c2cnn3cc(-c4ccc(OCCN5CCCCC5)cc4)cnc23)cs1)C(F)(F)F`, the inhibition in assay [1] was 35%. Further, in assay [2], the fold change (FC) worked out at 0.1.

For `O=C(N[C@@H](C1CC1)C(F)(F)F)c1cc(-c2cnn3cc(-c4ccc(F)cc4)cnc23)cs1`, the fold change (FC) came out at 0.41 in assay [3] and 0 in assay [4]. Also, the inhibition in assay [5] was 13%.

As to `CNC(=O)c1ccccc1Oc1nc(Nc2cc(OC)c(OC)c(OC)c2)ncc1Br`, in assay [6], the fold change (FC) was found to be 0.12. For the same molecule, the inhibition in assay [7] was determined as 0%.
